The record followed here is US9828344B2, “Inhibitors of the notch signaling pathway and secretion for use in medicine” (Leibniz-Institut für Altersforschung Fritz-Lipmann-Institut …, priority 2012, dated 2017).

For data set [1], the system named is NotchΔE-EGFP. Kind of data set: cells. It is filed as cell-based. The following applies: for change of reporter localization quantified by automated microscopy: assay validation, monensin 6 h dose-dependent, MG132 1 μM 16 h; for activity in NotchΔE-EGFP cells (enuc/nuc ratios): SAR and prior-art comparison, FIG. 5a/5b. The text has this: To identify novel regulatory factors involved in Notch trafficking/processing an image-based high content screen was set up. […] NotchΔE-EGFP is a direct substrate for γ-secretase at the PM, and under physiological conditions is proteolytically processed to NICD-EGFP that translocates into the nucleus (for scheme see FIG. 1b), resulting in a strong nuclear EGFP-staining in steady state^15 (FIG. 1d). […] Importantly, changes in subcellular localization of the reporter are amenable to quantitation by automated microscopy^15. Accordingly, reporter fluorescence was determined in the nucleus (nuc) and in a ring around the nucleus (enuc), and the ratio enuc/nuc was evaluated (schematized in FIG. 1c). Thereafter, the assay design was functionally validated. […] The assay also reliably detected trafficking defects in the secretory pathway. […] Taken together, the assay was validated for reliably detecting concentration and time dependent changes in trafficking and processing of the Notch reporter.
Cells were seeded in 96-well plates at a density of 5000 cells/well in 100 μl medium. The next day, 100 μl medium containing the respective test compounds was added. Cells were incubated for 16 h, fixed and processed for automated microscopy. For the putative gamma-secretase inhibitors the enuc intensity was divided by the DAPT control and for the trafficking inhibitors normalized percentage inhibition against DAPT/DMSO controls of log 2 transformed nuc/enuc ratios were calculated. Relative activity values were read into “R” (http://www.r-project.org/) and EC50 estimates were calculated using four-parameter log-logistic fit with the package “drc”^51.
Images were acquired on an ArrayScan VTi automated microscope (ThermoFisher) and numerical data were extracted with the Compartmental Analysis BioApplication of the bundled software suite. Compound screening raw data were collected at the FMP and data transformation was performed according to standard procedures (ref 17 and supp. Refs 6-7).

The subject of data set [2] is NotchΔE-EGFP. Kind of data set: Fluorescence microscopy of reporter localization in HeLa NotchΔE-EGFP cells. It is filed as cell-based. The following applies: 10 μM compound, 24 h. As for the experimental part: FIG. 10: Phenotypes of Notch inhibitors are fully reversible. HeLa NotchΔE-EGFP cells plated in LabTek coverglass were incubated for 18 h with 10 iM of indicated compounds, washed and incubated for indicated times in cell culture medium. Cells were imaged by live-microscopy. […] Scalebar, 10 im.
For a detailed analysis of subcelluar distribution of NotchΔE/NICD the resolution of the HCS images was not sufficient. Therefore, the reporter cell line was plated on coverslips and incubated with 10 μM of individual compounds from the final hit list. After 24 h the localization of NotchΔE-EGFP/NICD-EGFP was determined by fluorescence microscopy. […] (FIG. 8).
Immunofluorescence stainings were made using standard procedures^55. Imaging was performed on a Zeiss Axiovert200 or an Axio Imager, using 63× 1.4NA objectives and Zeiss Axiovision software. For live-imaging cells were plated on Lab-Tek chambered coverglass (Thermo-Fisher). Images were assembled and processed using Adobe Photoshop. For displaying weakly stained ER-tubules/sheets non-linear changes in gamma-settings were used.

In data set [3] the test system is γ-secretase. Kind of data set: In vitro γ-secretase assay with isolated membranes. Format: biochemical. The following applies: 37° C. As for the experimental part: FIG. 3: Effect of compounds on NotchΔE-EGFP, APP and Klotho trafficking and processing. a) HEK293 stably expressing APPswe or Klotho (KI) were incubated with DAPT or compounds (10 μM) for 16 h. Media were collected, cells lysed and both assayed by Western blotting using indicated antibodies. m, mature; im, immature; s, shedded ectodomain; CTF, C-terminal fragment. b) Membranes from HeLa-NotchΔE-EGFP and APPswe cells were isolated and subjected to a γ-secretase in vitro assay in the presence of DAPT or compounds as indicated. NICD and AICD were detected by Western Blotting using antibodies against the C-terminus of APP (top) or antibodies specific for NICD (bottom). c) Quantitation from 5 independent experiments.
To test whether FLI-06 affected other membrane proteins, Klotho, a type I protein processed like APP and Notch^20, was analyzed. […] To analyze γ-secretase activity, in vitro assays using isolated membranes were performed (FIG. 3b, c). Production of NICD-EGFP and AICD (APP intracellular domain) were assayed. Both were produced in vitro at 37° C. but not at 4° C., and their production was inhibited by DAPT.
For assaying AICD formation, membranes of HEK293 cells stably expressing APP with the Swedish mutation were isolated and incubated for 4 h at 37° C. according to Sastre et al.^52. For assaying NICD formation, membranes from HeLa NotchΔE-EGFP cells were mixed with membranes from HeLa NotchΔE-EGFP cells that were pre-treated with 10 μM DAPT overnight to enrich substrate. After incubation samples were loaded onto either 8% SDS-PA gels (NICD) or 10-20% Tris-Tricine gels (AICD), blotted and probed with cleaved-Notch antibody or antibody 6687 against APP C-terminus^53. Chemoluminescence was quantified on a LAS-4000 (Fuji) with MultiGauge software.

For data set [4], the system named is zebrafish embryos. The experiment in a line: Zebrafish embryo Notch phenotype (somites, ngn1 qPCR and ISH). Format: in vivo, zebrafish Danio rerio. The method, then:
Cells were incubated with DAPT or 10 μM of the indicated compounds (50 μM in case of FLI-15 and -20) and after 16 h a luciferase assay was performed. […] Changes in relative gene expression levels (fold change) relative to the expression levels in DMSO controls are represented as the mean+/−SD, asterisks indicate p<0.01. Each measurement was taken from two independent samples. Each reaction was measured in triplicate. Changes in the relative expression of ngn1 were standardized to the expression of the housekeeping gene ef1a at 20 hpf. c) ISH with riboprobes specific for ngn1 was performed on dechorionated stage 4 hpf zebrafish embryos. Anterior is to the left, dorsal to the top. Magnifications of the somite region (small box) are shown. Arrows indicate larger ngn1 clusters or stronger ngn1 staining. s, sensory neurons; i, intermediate neurons; m, motor neurons.
FIG. 11: Selected compounds affect somite formation and neurogenesis in vivo in zebrafish embryos. a) Lateral view of typical representative phenotypes induced by DAPT treatment, which were used as a reference to score the effect of compounds. […] Images were taken at 24 hpf. b) Pie chart showing the cumulative relative frequency of the phenotypes in a) at 24 hpf in embryos treated with 20, 50 and 100 iM of the indicated compounds. c) ISH with riboprobes specific for ngn1 was performed on dechorionated stage 4 hpf zebrafish embryos. Anterior is to the left, dorsal to the top. Magnifications of the developing head (box) are shown. Arrows indicate larger ngn1 clusters or stronger ngn1 staining. t, telencephalon; p, protectum; h, hindbrain; d, diencephalon; tg, tegmentum; vrc, ventral rostral cluster.
We wanted to test whether the results obtained with the NotchΔE-EGFP construct are relevant for endogenous Notch signaling. Therefore we made use of C2C12 cells, a well established model for muscle development that expresses endogenous Notch^21,22. After stimulating endogenous Notch signaling by transfecting the Notch ligand Delta, Notch activity was measured by a luciferase assay using a Notch reporter^15 in the presence or absence of compounds (FIG. 4a). […] Next, we tested whether selected compounds would affect Notch signaling in vivo. […] Compounds were added to dechorionated stage 4 hpf zebrafish embryos and the effects were analyzed after 24 h by morphological inspection of somite formation. Phenotypes were ranked to four categories, normal somites, mild somite defects, strong somite defects and developmental delay. […] As an additional parameter we decided to analyze Notch-dependent genes involved in neurogenesis. Primary neurogenesis in zebrafish involves the selection of neuroblasts (repressed by Notch) from proneural clusters (Notch expressing cells), a process regulated in a negative manner by Notch-dependent lateral inhibition^25. Accordingly, neuroblast cells that express the neuronal specification factor neurogenin (ngn1^26) became more abundant when Notch signaling was impaired, for instance upon DAPT treatment^23,27. qPCR analyses on mRNA extracted from equivalent sets of embryos was performed for ngn1 expression (FIG. 4b). […] To confirm the data obtained by qPCR, whole-mount in-situ hybridizations (ISH) using an ngn1 specific riboprobe were performed (FIG. 4c, FIG. 11c). […] Taken together, FLI-06, -14, -15, -19 and -20 inhibited endogenous Notch signaling in vitro and in vivo, corroborating the NotchΔE-EGFP reporter data.
Embryos were obtained from natural spawning of wild-type TüAB strain adults, raised and staged according to supp. Ref 14. DAPT and compounds were applied at 50 iM in E3 embryo medium to zebrafish embryos with chorions torn but not completely removed from sphere stage until the stage of analysis, according to ref 23. Control embryos were mock treated with the same concentration of DMSO dissolved in E3 embryo medium. […]
Background: In qPCR the cycle at which signal appears reflects the starting amount.

Peptide text beside a SMILES is read from it. * marks the point of attachment. Cbz = O=C(OCc1ccccc1)*

With `CC(C)C[C@@H](C=O)NC(=O)[C@H](CC(C)C)NC(=O)[C@H](CC(C)C)NC(=O)OCc1ccccc1` [MG132] (Cbz-Leu-Leu-Leu-aldehyde), the “change of reporter localization quantified by automated microscopy” value in data set [1] is “accumulation of NICD in the nucleus”.

Consider `CC1=C(C(=O)OC2CCCCC2)C(c2ccc([N+](=O)[O-])cc2)C2=C(CC(C)(C)C/C2=N\OCC(=O)O)N1` (centres unmarked) [compound 6, E-2-(((3′-Cyclohexyloxycarbonyl-4″-nitrophenyl-2′,7′,7′-trimethyl-1′,4′,5′,6′,7′,8′-hexahydroquinoline-5′-ylidene)amino)oxy)acetic acid], for which the “activity in NotchΔE-EGFP cells (enuc/nuc ratios)” value in data set [1] is “entirely inactive”.

With `CCCCCOC(=O)C1=C(C)NC2=C(C(=O)CC(C)(C)C2)C1c1ccc([N+](=O)[O-])cc1` (centres unmarked) [ST216093], the “activity in NotchΔE-EGFP cells (enuc/nuc ratios)” value in data set [1] is “show the desired activity”.

Regarding `C[C@H](NC(=O)Cc1cc(F)cc(F)c1)C(=O)N[C@H](C(=O)OC(C)(C)C)c1ccccc1` [DAPT, reference compound], in data set [1], the “cell viability by visual inspection” value is given as “viable at all times”. Besides, in data set [1] (1 μM DAPT), the “t1/2 of decrease of NICD-EGFP fluorescence in the nucleus” value stood at 4.7 ± 1.0 h and the “t9/10 of decrease of NICD-EGFP fluorescence in the nucleus” value worked out at 8.6 ± 2.9 h. Further, the “localization of NotchΔE-EGFP/NICD-EGFP” value in data set [2] is “accumulated at the PM”. In data set [3], the “NICD-EGFP and AICD production in isolated membranes” value was “inhibited”. Also, the “ngn1 positive cell clusters in the developing brain (ISH)” value in data set [4] (50 μM, compared to DMSO controls) is “differentially expanded”. For the same compound, the “ngn1 positive cell clusters along the spinal cord (ISH)” value in data set [4] (50 μM, compared to DMSO-treated control embryos) is “expanded and denser clusters of ngn1 positive cells”. The “ngn1 mRNA levels (qPCR)” value in data set [4] (50 μM, relative to DMSO controls) is given as “significantly increased”. The somite/morphological phenotype result in data set [4] (embryos treated from 4-6 hpf, scored at 24 hpf) was “either defective somitogenesis (mild), head and trunk malformation (strong) or developmental delay (delayed)”.

As to `COCCOC(=O)C1=C(C)NC2=C(C(=O)CC(c3ccc(Cl)cc3)C2)C1c1ccccc1F` (centres unmarked) [C3], the “activity in NotchΔE-EGFP cells (enuc/nuc ratios)” value in data set [1] was “no activity”.

As to `COCCOC(=O)C1=C(C)NC2=C(C(=O)CC(c3ccccc3)C2)C1c1ccccc1F` (centres unmarked) [C4], the “activity in NotchΔE-EGFP cells (enuc/nuc ratios)” value in data set [1] was “no activity”.

Regarding `COCCOC(=O)C1=C(C)NC2=C(C(=O)CC(c3ccccc3OC)C2)C1c1cccc(O)c1` (centres unmarked) [HPI-1], the “activity in NotchΔE-EGFP cells (enuc/nuc ratios)” value in data set [1] is listed as “no activity”.

Regarding `COC(=O)C1=C(C)NC2=C(C(=O)CC(c3ccc(Cl)cc3)C2)C1c1ccccc1F` (centres unmarked) [C5], in data set [1], the “activity in NotchΔE-EGFP cells (enuc/nuc ratios)” value is “no activity”.

`CC[C@@]1([C@@H]2O[C@@H]([C@H]3O[C@@](O)(CO)[C@H](C)C[C@@H]3C)C[C@@H]2C)CC[C@H]([C@]2(C)CC[C@]3(C[C@H](O)[C@@H](C)[C@@H]([C@@H](C)[C@@H](OC)[C@H](C)C(=O)O)O3)O2)O1` [monensin]: in data set [1], the “change of reporter localization quantified by automated microscopy” value was “blocking the anterograde transport of NotchΔE-EGFP”.
